In ChEMBL document CHEMBL1137157, “Synthesis and biological activity of 2-anilino-4-(1H-pyrrol-3-yl) pyrimidine CDK inhibitors” (Bioorg Med Chem Lett, 2004):

Columns and labels:
Cell line = test: inhibitory concentration for anti-proliferative activity against A549 and […] human tumor cell lines was determined; assay type: functional, cell-based
[1] = molecular target: Cyclin-dependent kinase 2 (Homo sapiens, UniProt P24941); test: Inhibition of Cyclin dependent kinase 2
[2] = molecular target: Cyclin-dependent kinase 4 (Homo sapiens, UniProt P11802); test: Inhibition of Cyclin dependent kinase 4
Sequence of Cyclin-dependent kinase 4 (P11802 whole entry): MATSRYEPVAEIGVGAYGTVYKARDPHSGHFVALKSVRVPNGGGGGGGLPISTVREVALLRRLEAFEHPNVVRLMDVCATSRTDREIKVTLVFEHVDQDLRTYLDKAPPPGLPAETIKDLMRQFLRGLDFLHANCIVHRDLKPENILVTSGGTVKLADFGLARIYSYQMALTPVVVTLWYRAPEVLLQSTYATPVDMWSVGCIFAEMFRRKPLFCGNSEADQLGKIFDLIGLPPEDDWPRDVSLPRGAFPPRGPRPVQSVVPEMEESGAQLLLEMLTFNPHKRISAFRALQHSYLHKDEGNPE

SMILES | Ki [1] | Ki [2] | IC50 (Cell line)
Cc1ccc(Nc2nccc(-c3c(C)[nH]c(C#N)c3C)n2)cc1[N+](=O)[O-] |  |  | 0.38 µM
Cc1[nH]c(C#N)c(C)c1-c1ccnc(Nc2ccc(O)cc2)n1 |  |  | 1.36 µM
Cc1cc(Nc2nccc(-c3c(C)[nH]c(C#N)c3C)n2)ccc1F |  | 0.3 µM | 0.89 µM
Cc1[nH]c(C#N)c(C)c1-c1ccnc(Nc2cccc([N+](=O)[O-])c2)n1 |  |  | 0.36 µM
Cc1ccc(Nc2nccc(-c3c(C)[nH]c(C#N)c3C)n2)cc1O |  |  | 1.17 µM

The next lines start with results.

Ki [1] | Ki [2] | SMILES | IC50 (Cell line)
0.27 µM |  | Cc1[nH]c(Br)c(C)c1-c1ccnc(Nc2ccc(F)cc2)n1 | 16 µM
0.1 µM |  | Cc1[nH]c(C#N)c(C)c1-c1ccnc(Nc2ccc(F)cc2)n1 | 2.44 µM
0.03 µM |  | Cc1[nH]c(C#N)c(C)c1-c1ccnc(Nc2cccc(O)c2)n1 | 1.84 µM
 | 0.42 µM | Cc1[nH]c(C(N)=O)c(C)c1-c1ccnc(Nc2ccc(F)cc2)n1 | 1.64 µM
 | 4.17 µM | Cc1c[nH]c(C)c1-c1ccnc(Nc2cccc([N+](=O)[O-])c2)n1 | 
 | 0.12 µM | Cc1[nH]c([N+](=O)[O-])c(C)c1-c1ccnc(Nc2ccc(F)cc2)n1 | 3.12 µM
0.36 µM |  | Cc1[nH]c(Cl)c(C)c1-c1ccnc(Nc2ccc(F)cc2)n1 | 13 µM
